Data set [1] deals with F-2,6-P2 in MCF-7 cells. In words: Quantification of F-2,6-P2 (Van Schaftingen coupled enzyme assay) in MCF-7 cells. The class given is cell-based. The following applies: Homo sapiens, MCF7, read-out: IC50 based on quantification of F-2,6-P2. An excerpt:
(§1) A method for quantification of F-2,6-P2 has been described by Van Schaftingen et al. (1982) Eur. J. Biochem. 129, 191-5. This sensitive assay is based on the potent activation of pyrophosphate dependent phosphofructokinase-1 (PPi-PFK) from potato tubers by F-2,6-P2. The use of a series of coupled enzymes leads to a consumption of NADH (nicotinamide adenine dinucleotide) that can be followed spectrophotometrically (an updated protocol is available in Van Schaftingen, (1984) Methods of Enzymatic Analysis (Bergmeyer, H. U., ed.), 3rd edn., vol. 6, pp. 335-341, Verlag Chemie, Weinheim). A protocol for measurements in 96-well microtiter plate format is also available (Bruni et al., (1989) Anal. Biochem. 178, 324-6).
(§2) The levels of F-2,6-P2 have been determined using the van Shaftingen assay as described in the protocol below, in six different cancer cell lines endogenously expressing varying levels of the different isoforms of PFK-2/BPase-2 (MCF-7, PANC-1, NUGC-3, SW480, SW620 and MIA PaCa-2). All reagents were purchased from commercial sources or prepared in-house.
Cell line A (MCF-7, human breast adenocarcinoma cell line): MCF-7 cells (ATCC-HTB-22), lot. no. 58469417. […]

In data set [2] the test system is MIA PaCa-2 xenografts. In words: Inhibition of tumour growth, MIA PaCa-2 xenografts in NMRI nude mice. The class given is in vivo, mouse. The following applies: 45 mg/kg twice a day, 3 weeks. How it is done: FIG. 3 illustrates the effects of treatment with Example 183 on the growth of established xenografts from the human pancreatic carcinoma cell line MIA PaCa-2 in NMRI nude mice. NMRI nude mice were injected subcutaneously with MIA PaCa-2 cells. At an average tumor size of around 100 mm^3 mice were selected and randomized into treated (injected with substance) and control (vehicle treated) groups. Example 183 was administered at two doses, 25 mg/kg and 45 mg/kg, twice a day with 12 hours between administrations. From the day of inoculation the tumors were scored or measured three times a week using a digital caliper, and the body weights were determined at the same time points. The dose of injected substance was adjusted to the actual body weight of each animal. The dosing of the animals was in a period of 3 weeks.

Data set [3] is described as follows: In vitro metabolic stability in human liver microsomes. The following applies: pH 7.4, pooled human liver microsomes 0.5 mg/ml, NADPH 1 mM, compound 3 μM. Type of data set: in vitro ADME. The method, then:
Pooled human liver microsomes (final protein conc 0.5 mg/ml), 0.1 M phosphate buffer (pH 7.4) and NADPH (final conc 1 mM) were pre-incubated at 37° C. Example 183 (final conc 3 μM) was added to initiate the reaction. A control incubation where 0.1 M phosphate buffer (pH 7.4) was added instead of NADPH was done as a parallel experiment. After incubation for 0, 5, 10, 30 and 45 min with NADPH (for 45 min in the control incubation), MeCN containing internal standard was added to stop the reactions. The samples were centrifuged at 2500 rpm for 20 min at 4° C. before analysis using LC-MS/MS.
Background: Microsomes from liver hold many membrane-bound enzymes, among them those of drug oxidation.

Data set [4] deals with F-2,6-P2 in MIA PaCa-2 cells. In words: Quantification of F-2,6-P2 (Van Schaftingen coupled enzyme assay) in MIA PaCa-2 cells. Type of data set: cell-based. The following applies: Homo sapiens, read-out: IC50 based on quantification of F-2,6-P2.
Description: as §1, §2
Cell line F (MIA PaCa-2, human pancreatic carcinoma): MIA PaCa-2 cells (ATCC-CRL-1420), lot. no. 59270201. Cells were seeded at a concentration of ˜250 000 cells/mL in 100 μL growth medium (˜25 000 cells/well). […]

Data set [5] is described as follows: Cell toxicity, CellTiter-Blue Cell Viability Assay. The following applies: human, MIA PaCa-2 pancreatic carcinoma cells, MIA PaCa-2 cells, 72 h culture, read-out: IC50 based on cell toxicity. The method, then: The CellTiter-Blue® Cell Viability Assay provides a homogeneous, fluorometric method for estimating the number of viable cells present in multi-well plates. It uses the indicator dye resazurin to measure the metabolic capacity of cells. Viable cells retain the ability to reduce resazurin into resorufin, which is highly fluorescent.
Stock solutions (10 or 100 mM in DMSO) of compounds were serially diluted 1:2 in 11 concentrations. 25 nL/well (100 mM stock) or 50 nL/well (10 mM stock) were acoustically dispensed in assay plates with EDC acoustic dispenser. Final starting conc. in assay was 20 μM (0.2% DMSO) or 100 μM (0.1% DMSO) for test compounds.
Cells (MIA-PaCa-2; pancreatic carcinoma) were seeded in assay plates (384-well black/clear, Greiner #781091) pre-dispensed with compounds, 25 μL/well, and cultured for 72 h. The cell concentration was 750 cells/well. After 72 h culture, Celltiter Blue reagent was added (5 μL/well) and the plates were incubated for 2 h. The plates were read in an Envision fluorescence reader with Ex544 nm/Em590 nm. Results were calculated as % cytotoxicity compared to background (cells treated with 0.2% DMSO).
Background: Resazurin is reduced to fluorescent resorufin, in cell work by metabolically active cells.

Data set [6] in a line: Plasma exposure in NMRI nude mice. Type of data set: in vivo, mouse. The following applies: 45 mg/kg, 0.5 h after last injection (day 21). How it is done: In a related study using the same dosing schedule in NMRI nude mice, blood samples were drawn 0.5 h after last injection (day 21) to determine exposure of Example 183. Plasma, prepared by centrifugation of the blood, was frozen and kept at −20° C. Thawed plasma samples were precipitated with MeCN, centrifuged and the supernatants were analyzed by LC-MSMS. Standard samples, prepared by spiking blank plasma with Example 183, were used for quantification.

Data set [7] concerns NMRI mice. In words: In vivo tolerance in NMRI mice. Also on record: species or system mouse. The following applies: 25 and 45 mg/kg. How it is done:
In vivo tolerance was tested in NMRI mice using Examples 157 and 183 in 2 doses (25 and 45 mg/kg), following intraperitoneal injections daily for seven days.

We go through two compounds from patent publication US9718809B2, “Bisarylsulfonamides useful in the treatment of inflammation and cancer” (Kancera AB, priority 2011, dated 2017).

For the compound `COCCOC(=O)c1ccc(NS(=O)(=O)c2cc(-c3ccc4c(c3)CCO4)c(Cl)s2)cc1O` [Example 76, 2-Methoxyethyl 4-({[5-chloro-4-(2,3-dihydro-1-benzofuran-5-yl)-2-thienyl]sulfonyl}amino)-2-hydroxybenzoate], in data set [1], the IC50 is 900 nM.

For `O=C(OCCO)c1ccc(NS(=O)(=O)c2cccc(-c3cc(F)ccc3O)c2)cc1O` [Example 183, 2-Hydroxyethyl 4-{[(5′-fluoro-2′-hydroxybiphenyl-3-yl)sulfonyl]amino}-2-hydroxybenzoate], in data set [2], the “tumor growth compared to a vehicle treated group” value is “significant inhibition (p<0.01)”. Also, the half-life at 3 μM in data set [3] was determined as 55 min. Moreover, the microsomal CLint at 3 μM in data set [3] (read-out: intrinsic clearance) was determined as 25 µL/min/mg. Besides, the IC50 in data set [4] worked out at 200 nM. Further, the IC50 at 72 h in data set [5] came to 2600 nM. Further, in data set [6], the “exposure of unbound compound in plasma versus in vitro IC50 value (MIA PaCa-2 cells)” value is given as “exceeded the in vitro IC50 value”. Also, the “histological examinations of organs” value in data set [7] (intraperitoneal daily for seven days, adrenal gland, brain, cerebellum, heart, intestines, kidneys, liver, lungs, mesenteric lymph node, pancreas, spleen) is on record as “Specific lesions consistent with toxic damage were not observed”. Besides, the “macro observations during and after treatment” value in data set [7] (intraperitoneal injections daily for seven days) is given as “no sign of abnormal behavior or health problem”.

As usually defined, the IC50 is the concentration needed to halve the response being measured. As usually defined, the half-life is the time in which the quantity being followed falls by half. High values mean slow decline, low ones rapid decline.
